Where a SMILES comes first, the peptide text is derived from it. Bridges are numbered along the chain shown (N, C = ends).
Assays:
Experiment in all cases: BROMOscan competition binding assay (BromoMAX, Eurofins DiscoverX)
PBRM1(2) = biological target: T1, PBRM1(2) (Homo sapiens, UniProt Q86U86); settings: for Percent Control PBRM1(2): compound concentration 1000 nM, lower percentage control = stronger affinity
T1 construct: PBRM1(2); purchased Eurofins DiscoverX (BROMOscan, BromoMAX)

BRD4(2) = biological target: T2, BRD4(2) (Homo sapiens, UniProt O60885); settings: for Percent Control BRD4(2): compound concentration 1000 nM, lower percentage control = stronger affinity
T2 construct: BRD4(2); purchased Eurofins DiscoverX (BROMOscan, BromoMAX)

SMARCA2 = biological target: T3, SMARCA2 (Homo sapiens, UniProt P51531); settings: for Percent Control SMARCA2: compound concentration 1000 nM, lower percentage control = stronger affinity
T3 construct: purchased Eurofins DiscoverX (BROMOscan, BromoMAX)
T3 sequence (P51531 whole entry): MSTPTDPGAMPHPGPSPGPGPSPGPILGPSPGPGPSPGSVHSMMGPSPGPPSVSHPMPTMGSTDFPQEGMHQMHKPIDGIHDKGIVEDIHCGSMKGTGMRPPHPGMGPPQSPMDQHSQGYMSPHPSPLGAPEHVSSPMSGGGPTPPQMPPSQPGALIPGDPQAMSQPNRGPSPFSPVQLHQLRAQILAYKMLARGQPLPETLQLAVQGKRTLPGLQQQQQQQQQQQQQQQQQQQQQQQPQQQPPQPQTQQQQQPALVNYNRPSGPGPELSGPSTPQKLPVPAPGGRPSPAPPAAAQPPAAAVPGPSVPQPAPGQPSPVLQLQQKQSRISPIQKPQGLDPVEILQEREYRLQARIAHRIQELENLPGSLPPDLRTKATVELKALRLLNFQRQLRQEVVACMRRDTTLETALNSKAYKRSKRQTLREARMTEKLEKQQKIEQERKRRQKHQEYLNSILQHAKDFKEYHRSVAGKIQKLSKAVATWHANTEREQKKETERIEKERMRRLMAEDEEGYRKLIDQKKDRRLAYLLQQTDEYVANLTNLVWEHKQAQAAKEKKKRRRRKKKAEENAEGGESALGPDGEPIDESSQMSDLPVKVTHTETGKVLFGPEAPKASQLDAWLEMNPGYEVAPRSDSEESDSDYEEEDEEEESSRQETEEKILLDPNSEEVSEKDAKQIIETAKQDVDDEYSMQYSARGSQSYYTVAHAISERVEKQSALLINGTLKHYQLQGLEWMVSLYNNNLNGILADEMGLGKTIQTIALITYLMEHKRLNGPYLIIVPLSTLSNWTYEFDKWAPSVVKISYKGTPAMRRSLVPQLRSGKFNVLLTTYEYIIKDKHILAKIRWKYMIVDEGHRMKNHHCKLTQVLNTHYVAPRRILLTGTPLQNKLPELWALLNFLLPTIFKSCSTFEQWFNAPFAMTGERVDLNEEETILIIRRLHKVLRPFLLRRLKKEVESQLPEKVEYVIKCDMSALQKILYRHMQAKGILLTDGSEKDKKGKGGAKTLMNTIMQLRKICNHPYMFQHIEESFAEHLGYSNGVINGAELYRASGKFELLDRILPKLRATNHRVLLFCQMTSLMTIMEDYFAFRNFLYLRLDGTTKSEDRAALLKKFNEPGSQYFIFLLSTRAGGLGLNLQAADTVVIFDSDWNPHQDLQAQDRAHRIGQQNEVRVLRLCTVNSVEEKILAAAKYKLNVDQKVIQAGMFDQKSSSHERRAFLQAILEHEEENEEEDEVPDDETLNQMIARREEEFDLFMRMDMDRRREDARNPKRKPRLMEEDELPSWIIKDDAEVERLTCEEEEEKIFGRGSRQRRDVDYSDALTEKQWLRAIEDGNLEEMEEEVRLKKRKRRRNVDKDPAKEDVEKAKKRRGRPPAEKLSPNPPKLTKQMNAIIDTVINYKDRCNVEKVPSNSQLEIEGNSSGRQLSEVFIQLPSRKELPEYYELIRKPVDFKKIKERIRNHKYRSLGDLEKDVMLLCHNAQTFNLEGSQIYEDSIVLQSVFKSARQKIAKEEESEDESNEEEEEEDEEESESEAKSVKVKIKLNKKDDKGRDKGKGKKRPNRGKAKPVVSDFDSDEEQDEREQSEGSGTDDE

BRPF1 = biological target: T4, BRPF1 (Homo sapiens, UniProt P55201); settings: for Percent Control BRPF1: compound concentration 1000 nM, lower percentage control = stronger affinity
T4 construct: purchased Eurofins DiscoverX (BROMOscan, BromoMAX)
T4 sequence (P55201 1-1214): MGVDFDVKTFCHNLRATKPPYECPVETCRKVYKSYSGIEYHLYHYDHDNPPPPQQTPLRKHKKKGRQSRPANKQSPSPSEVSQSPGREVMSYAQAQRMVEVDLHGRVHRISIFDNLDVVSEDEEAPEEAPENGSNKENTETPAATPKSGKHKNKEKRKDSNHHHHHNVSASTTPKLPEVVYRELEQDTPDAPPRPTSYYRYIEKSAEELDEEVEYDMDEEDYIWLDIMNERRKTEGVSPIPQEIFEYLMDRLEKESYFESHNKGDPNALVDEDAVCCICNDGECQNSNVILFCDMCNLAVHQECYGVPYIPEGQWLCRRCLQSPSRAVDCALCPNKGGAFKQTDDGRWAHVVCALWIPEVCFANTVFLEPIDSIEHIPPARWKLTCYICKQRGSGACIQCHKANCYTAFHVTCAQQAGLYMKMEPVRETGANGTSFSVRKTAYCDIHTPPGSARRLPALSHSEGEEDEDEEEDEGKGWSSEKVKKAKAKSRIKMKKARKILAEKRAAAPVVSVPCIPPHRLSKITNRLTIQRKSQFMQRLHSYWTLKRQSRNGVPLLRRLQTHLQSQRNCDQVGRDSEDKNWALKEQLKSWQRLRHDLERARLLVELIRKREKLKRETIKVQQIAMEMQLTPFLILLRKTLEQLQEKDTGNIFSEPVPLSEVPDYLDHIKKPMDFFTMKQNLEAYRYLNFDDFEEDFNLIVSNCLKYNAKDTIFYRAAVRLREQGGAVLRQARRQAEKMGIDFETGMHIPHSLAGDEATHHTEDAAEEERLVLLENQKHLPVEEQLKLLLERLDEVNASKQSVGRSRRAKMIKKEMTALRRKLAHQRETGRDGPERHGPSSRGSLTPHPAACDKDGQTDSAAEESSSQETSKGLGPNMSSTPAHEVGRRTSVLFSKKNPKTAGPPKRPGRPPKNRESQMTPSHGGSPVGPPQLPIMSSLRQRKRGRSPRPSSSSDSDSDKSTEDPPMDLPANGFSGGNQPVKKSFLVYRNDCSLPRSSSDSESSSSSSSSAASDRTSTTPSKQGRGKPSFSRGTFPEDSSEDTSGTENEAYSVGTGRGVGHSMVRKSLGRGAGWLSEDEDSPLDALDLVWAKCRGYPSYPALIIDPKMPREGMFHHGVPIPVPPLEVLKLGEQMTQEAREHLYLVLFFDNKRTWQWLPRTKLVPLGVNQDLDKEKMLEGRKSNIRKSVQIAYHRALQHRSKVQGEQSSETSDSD

BRPF3 = biological target: T5, BRPF3 (Homo sapiens, UniProt Q9ULD4); settings: for Percent Control BRPF3: compound concentration 1000 nM, lower percentage control = stronger affinity
T5 construct: purchased Eurofins DiscoverX (BROMOscan, BromoMAX)
T5 sequence (Q9ULD4 1-1205): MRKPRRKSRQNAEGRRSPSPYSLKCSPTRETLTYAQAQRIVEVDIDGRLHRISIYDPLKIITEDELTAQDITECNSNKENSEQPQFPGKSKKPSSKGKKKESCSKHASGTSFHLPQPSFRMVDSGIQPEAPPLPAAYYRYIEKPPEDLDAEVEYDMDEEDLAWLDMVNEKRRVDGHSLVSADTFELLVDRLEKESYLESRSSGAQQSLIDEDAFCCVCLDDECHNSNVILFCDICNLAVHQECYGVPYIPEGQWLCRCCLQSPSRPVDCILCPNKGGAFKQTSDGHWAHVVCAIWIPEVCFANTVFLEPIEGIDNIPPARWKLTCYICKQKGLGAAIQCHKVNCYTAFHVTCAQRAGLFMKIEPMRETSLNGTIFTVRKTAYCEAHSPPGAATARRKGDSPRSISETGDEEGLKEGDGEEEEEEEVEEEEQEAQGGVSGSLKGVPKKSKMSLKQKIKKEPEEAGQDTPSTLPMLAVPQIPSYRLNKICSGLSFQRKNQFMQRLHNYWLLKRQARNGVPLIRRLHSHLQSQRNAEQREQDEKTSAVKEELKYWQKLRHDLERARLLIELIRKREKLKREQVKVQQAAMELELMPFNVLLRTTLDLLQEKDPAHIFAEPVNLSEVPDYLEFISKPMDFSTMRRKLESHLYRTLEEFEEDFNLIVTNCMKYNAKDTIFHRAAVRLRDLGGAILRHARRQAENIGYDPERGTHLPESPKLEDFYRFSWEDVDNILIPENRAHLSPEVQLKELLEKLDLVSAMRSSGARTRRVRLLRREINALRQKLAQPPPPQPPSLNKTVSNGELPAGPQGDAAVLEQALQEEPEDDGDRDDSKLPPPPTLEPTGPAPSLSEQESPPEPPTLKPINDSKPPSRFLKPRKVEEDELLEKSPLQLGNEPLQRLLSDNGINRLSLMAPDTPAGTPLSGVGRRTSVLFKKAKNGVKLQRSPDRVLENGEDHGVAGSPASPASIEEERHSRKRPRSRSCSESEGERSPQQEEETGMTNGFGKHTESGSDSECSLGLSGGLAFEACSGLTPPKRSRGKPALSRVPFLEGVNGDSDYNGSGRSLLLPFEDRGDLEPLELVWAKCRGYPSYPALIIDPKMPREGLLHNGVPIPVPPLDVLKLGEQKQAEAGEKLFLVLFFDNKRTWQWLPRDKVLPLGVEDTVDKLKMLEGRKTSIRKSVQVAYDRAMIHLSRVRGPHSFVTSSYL

BAZ2A = biological target: T6, BAZ2A (Homo sapiens, UniProt Q9UIF9); settings: for Percent Control BAZ2A: compound concentration 1000 nM, lower percentage control = stronger affinity
T6 construct: purchased Eurofins DiscoverX (BROMOscan, BromoMAX)
T6 sequence (Q9UIF9 whole entry): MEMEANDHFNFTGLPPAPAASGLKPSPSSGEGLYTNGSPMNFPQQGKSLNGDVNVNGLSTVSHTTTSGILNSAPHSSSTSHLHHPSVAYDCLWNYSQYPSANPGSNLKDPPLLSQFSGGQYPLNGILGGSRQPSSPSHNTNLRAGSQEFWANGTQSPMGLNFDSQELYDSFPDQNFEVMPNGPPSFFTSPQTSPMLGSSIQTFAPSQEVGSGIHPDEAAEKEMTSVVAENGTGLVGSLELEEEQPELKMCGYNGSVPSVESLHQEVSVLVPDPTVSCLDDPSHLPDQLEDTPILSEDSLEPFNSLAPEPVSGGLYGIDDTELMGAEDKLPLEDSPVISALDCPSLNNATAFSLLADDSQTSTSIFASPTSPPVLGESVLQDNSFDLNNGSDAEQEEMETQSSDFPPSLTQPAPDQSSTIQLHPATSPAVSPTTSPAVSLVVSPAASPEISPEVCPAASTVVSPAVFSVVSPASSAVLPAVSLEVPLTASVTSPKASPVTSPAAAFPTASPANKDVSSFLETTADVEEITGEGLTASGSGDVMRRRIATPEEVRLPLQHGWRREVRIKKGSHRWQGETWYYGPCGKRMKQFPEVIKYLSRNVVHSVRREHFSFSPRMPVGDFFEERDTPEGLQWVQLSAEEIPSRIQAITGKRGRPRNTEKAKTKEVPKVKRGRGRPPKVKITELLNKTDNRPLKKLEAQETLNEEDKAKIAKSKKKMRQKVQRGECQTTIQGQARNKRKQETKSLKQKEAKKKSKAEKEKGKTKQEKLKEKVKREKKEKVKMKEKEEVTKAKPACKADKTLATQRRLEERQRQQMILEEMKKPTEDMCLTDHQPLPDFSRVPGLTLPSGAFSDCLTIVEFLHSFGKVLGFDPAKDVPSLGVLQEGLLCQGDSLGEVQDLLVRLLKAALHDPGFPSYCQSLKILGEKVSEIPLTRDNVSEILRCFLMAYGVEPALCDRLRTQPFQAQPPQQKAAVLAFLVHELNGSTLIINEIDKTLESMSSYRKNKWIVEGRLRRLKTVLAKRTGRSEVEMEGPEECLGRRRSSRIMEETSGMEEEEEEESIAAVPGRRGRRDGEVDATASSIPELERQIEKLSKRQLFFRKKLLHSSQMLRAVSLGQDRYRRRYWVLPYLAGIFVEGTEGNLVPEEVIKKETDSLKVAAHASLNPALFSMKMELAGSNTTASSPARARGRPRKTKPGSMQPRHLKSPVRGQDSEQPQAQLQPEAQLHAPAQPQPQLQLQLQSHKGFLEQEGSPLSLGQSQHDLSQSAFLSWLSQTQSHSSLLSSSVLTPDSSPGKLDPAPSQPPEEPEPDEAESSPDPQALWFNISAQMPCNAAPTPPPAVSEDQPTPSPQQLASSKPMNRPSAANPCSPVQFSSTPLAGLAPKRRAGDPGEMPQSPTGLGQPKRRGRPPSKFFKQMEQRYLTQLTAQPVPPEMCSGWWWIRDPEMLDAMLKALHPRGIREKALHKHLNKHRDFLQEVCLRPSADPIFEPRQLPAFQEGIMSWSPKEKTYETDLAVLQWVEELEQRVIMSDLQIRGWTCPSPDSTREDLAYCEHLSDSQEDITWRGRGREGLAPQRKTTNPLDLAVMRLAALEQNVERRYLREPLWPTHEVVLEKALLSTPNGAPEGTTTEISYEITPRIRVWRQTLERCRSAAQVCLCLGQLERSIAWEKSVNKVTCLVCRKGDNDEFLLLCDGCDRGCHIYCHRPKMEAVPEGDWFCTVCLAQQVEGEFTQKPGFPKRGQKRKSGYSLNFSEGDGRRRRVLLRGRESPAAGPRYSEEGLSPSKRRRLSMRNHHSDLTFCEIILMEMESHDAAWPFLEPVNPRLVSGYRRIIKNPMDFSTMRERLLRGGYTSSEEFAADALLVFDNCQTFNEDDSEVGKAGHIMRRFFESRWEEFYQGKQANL

T1 sequence (Q86U86 178-291 limits assumed): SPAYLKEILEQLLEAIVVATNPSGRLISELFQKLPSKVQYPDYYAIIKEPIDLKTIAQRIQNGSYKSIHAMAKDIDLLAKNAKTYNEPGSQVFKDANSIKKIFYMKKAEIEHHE

Structure (SMILES): CC[C@H](C)[C@@H]1NC(=O)[C@H]([C@@H](C)O)NC(=O)[C@H](CCCCN)NC(=O)[C@H](Cc2c[nH]c3ccccc23)NC(=O)CSC[C@@H](C(N)=O)NC(=O)[C@H](CCC(N)=O)NC(=O)[C@H](CCCCNC(C)=O)NC(=O)[C@H]([C@@H](C)O)NC(=O)[C@H](CCCNC(=N)N)NC(=O)[C@H](Cc2c[nH]c3ccccc23)NC(=O)[C@H]([C@@H](C)O)NC(=O)[C@H](CCCCNC(C)=O)NC(=O)CNC(=O)[C@H](CCCCNC(C)=O)NC1=O [3.1B] ({CH2CO}-WKTIK(Ac)GK(Ac)TWRTK(Ac)QC-NH2; thioether N-14)
- Percent Control PBRM1(2) (PBRM1(2)): 100%
- Percent Control BRD4(2) (BRD4(2)): 99%
- Percent Control SMARCA2 (SMARCA2): 34%
- Percent Control BRPF1 (BRPF1): 100%
- Percent Control BRPF3 (BRPF3): 100%
- Percent Control BAZ2A (BAZ2A): 15%

Structure (SMILES): CC[C@H](C)[C@@H]1NC(=O)[C@H](Cc2c[nH]c3ccccc23)NC(=O)[C@H](Cc2c[nH]c3ccccc23)NC(=O)CSC[C@@H](C(N)=O)NC(=O)CNC(=O)[C@H](CCCCNC(C)=O)NC(=O)[C@H](CCCCN)NC(=O)[C@H](C(C)C)NC(=O)[C@H](CCCCNC(C)=O)NC(=O)[C@@H]2CCCN2C(=O)[C@H]([C@@H](C)CC)NC1=O [3.1C] ({CH2CO}-WWIIPK(Ac)VKK(Ac)GC-NH2; thioether N-11)
- Percent Control PBRM1(2) (PBRM1(2)): 100%
- Percent Control BRD4(2) (BRD4(2)): 13%
- Percent Control SMARCA2 (SMARCA2): 35%
- Percent Control BRPF1 (BRPF1): 100%
- Percent Control BRPF3 (BRPF3): 95%
- Percent Control BAZ2A (BAZ2A): 99%

Structure (SMILES): CC[C@H](C)[C@H](NC(=O)[C@H](CCCNC(=N)N)NC(=O)[C@H](CCCCNC(C)=O)NC(=O)[C@H](CCCNC(=N)N)NC(=O)[C@H](CC(C)C)NC(=O)[C@@H]1CSCC(=O)N[C@@H](Cc2c[nH]c3ccccc23)C(=O)N[C@@H](CCCCNC(C)=O)C(=O)NCC(=O)N[C@@H](Cc2ccc(O)cc2)C(=O)N[C@@H](CC(C)C)C(=O)N1)C(=O)N[C@@H](CCC(N)=O)C(=O)N[C@@H](CCCNC(=N)N)C(=O)N[C@H](C(=O)N[C@@H](Cc1ccc(O)cc1)C(=O)N[C@@H](CC(N)=O)C(N)=O)[C@@H](C)O [4.2C] ({CH2CO}-WK(Ac)GYLCLRK(Ac)RIQRTYN-NH2; thioether N-6)
- remaining binding at 1 µM (PBRM1(2); read-out: Percent Control PBRM1(2)): 100%
- remaining binding at 1 µM (BRD4(2); read-out: Percent Control BRD4(2)): 24%
- percent of control binding at 1 µM (SMARCA2): 36%
- remaining binding at 1 µM (BRPF1; read-out: Percent Control BRPF1): 100%
- remaining binding at 1 µM (BRPF3; read-out: Percent Control BRPF3): 92%
- remaining binding at 1 µM (BAZ2A; read-out: Percent Control BAZ2A): 100%

From PMC7604503, “Cyclic peptides can engage a single binding pocket through highly divergent modes” (Proceedings of the National Academy of Sciences of the …, 2020)
